# According to patent US20130252930A1 (BIOMARIN PHARMACEUTICAL INC., priority 2010, published 2013):
# Biological target: T1, CYP17 (human testicular microsome) (Homo sapiens, UniProt P05093)
# T1 construct: using microsomal fraction from human testis (Celsis Cat #S00110) as the enzyme source; tissue Celsis S00110; host or cells: human testis microsomal fraction
# T1 sequence (P05093 1-508): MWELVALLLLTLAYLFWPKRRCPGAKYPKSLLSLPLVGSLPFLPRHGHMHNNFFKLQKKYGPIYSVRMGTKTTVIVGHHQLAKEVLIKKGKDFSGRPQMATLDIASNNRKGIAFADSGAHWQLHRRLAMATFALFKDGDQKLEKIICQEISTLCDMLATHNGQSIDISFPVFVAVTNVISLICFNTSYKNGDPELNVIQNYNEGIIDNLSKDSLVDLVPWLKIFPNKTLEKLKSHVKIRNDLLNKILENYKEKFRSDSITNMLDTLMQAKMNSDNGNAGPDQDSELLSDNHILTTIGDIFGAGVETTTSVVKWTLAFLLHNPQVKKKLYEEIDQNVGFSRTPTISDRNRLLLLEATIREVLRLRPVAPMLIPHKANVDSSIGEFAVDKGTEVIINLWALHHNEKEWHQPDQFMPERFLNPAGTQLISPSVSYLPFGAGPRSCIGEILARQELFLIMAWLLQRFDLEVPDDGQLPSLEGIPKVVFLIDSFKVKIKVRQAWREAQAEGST
# Assay: CYP17 enzymatic assay (% inhibition at 1 nM) (Biological Example 12)
# Format: biochemical
# Conditions: compound at 1 nM, read-out: Biological Example No. 12: CYP17 enzymatic assay % inhibition at 1 nM
row,Compound,inhibition at 0.001 µM
1,"Cc1ccncc1C(=O)O[C@H]1CC[C@@]2(C)C(=CC[C@H]3C4=CC=C(c5cccnc5)[C@@]4(C)CC[C@@H]32)C1 [Compound 205, (3S,10R,13S)-10,13-dimethyl-17-(pyridin-3-yl)-2,3,4,7,8,9,10,11,12,13-decahydro-1H-cyclopenta[a]phenanthren-3-yl 4-methylnicotinate]",10 to 50%
2,"CCNC(=O)NC1CC[C@@]2(C)C(CCC3C2CC[C@]2(C)C(c4cccnc4)=CCC32)C1C (stereo partly drawn) [Compound 414, 1-ethyl-3-((10R,13S)-4,10,13-trimethyl-17-(pyridin-3-yl)-2,3,4,5,6,7,8,9,10,11,12,13,14,15-tetradecahydro-1H-cyclopenta[a]phenanthren-3-yl)urea]",< 10%
3,"C[C@@]1(O)CC[C@@]2(C)C(CCC3C2CC[C@]2(C)C(c4cncc(Cl)c4)=CCC32)C1 (stereo partly drawn) [Compound 266, (3R,10S,13S)-17-(5-chloropyridin-3-yl)-3,10,13-trimethyl-2,3,4,5,6,7,8,9,10,11,12,13,14,15-tetradecahydro-1H-cyclopenta[a]phenanthren-3-ol]",10 to 50%
4,"CN1C(=O)CC[C@@]2(C)C1=CCC1C2CC[C@]2(C)C(c3cncc(C(F)F)c3)=CCC12 (stereo partly drawn) [Compound 429, (4aR,6aS)-7-(5-(difluoromethyl)pyridin-3-yl)-1,4a,6a-trimethyl-4,4a,4b,5,6,6a,9,9a,9b,10-decahydro-1H-indeno[5,4-f]quinolin-2(3H)-one]",< 10%
5,"CC1=C2CCC3C(CC[C@]4(C)C(c5cccnc5)=CCC34)[C@@]2(C)CC/C1=N\O (stereo partly drawn) [Compound 364, (10R,13S,E)-4,10,13-trimethyl-17-(pyridin-3-yl)-6,7,8,9,10,11,12,13,14,15-decahydro-1H-cyclopenta[a]phenanthren-3(2H)-one oxime]",10 to 50%
6,"C[C@]12CCNC(=O)CC1CCC1C2CC[C@]2(C)C(c3cncc(C(F)F)c3)=CCC12 (stereo partly drawn) [Compound 483, (5aS,7aS)-8-(5-(difluoromethyl)pyridin-3-yl)-5a,7a-dimethyl-3,4,5,5a,5b,6,7,7a,10,10a,10b,11,12,12a-tetradecahydrocyclopenta[5,6]naphtho[1,2-d]azepin-2(1H)-one]",> 50%

# Same assay, conditions: compound at 1 nM, read-out: CYP17 enzymatic assay % inhibition at 1 nM (Biological Example No. 12)
row,Compound,inhibition at 0.001 µM
1,"CCc1ccncc1C1=CC[C@H]2[C@@H]3CC[C@H]4CC(=O)NCC[C@]4(C)[C@H]3CC[C@]12C [Compound 469, (5aS,5bS,7aS,10aS,10bR,12aS)-8-(4-ethylpyridin-3-yl)-5a,7a-dimethyl-3,4,5,5a,5b,6,7,7a,10,10a,10b,11,12,12a-tetradecahydrocyclopenta[5,6]naphtho[1,2-d]azepin-2(1H)-one]",10 to 50%
2,"CC(=O)O[C@H]1CC[C@@]2(C)C(CCC3C4=CC=C(c5cnccc5C)[C@@]4(C)CCC32)C1 (stereo partly drawn) [Compound 466, (3S,10S,13S)-10,13-dimethyl-17-(4-methylpyridin-3-yl)-2,3,4,5,6,7,8,9,10,11,12,13-dodecahydro-1H-cyclopenta[a]phenanthren-3-yl acetate]",10 to 50%
3,"COC1CC[C@@]2(C)C(=CCC3C2CC[C@]2(C)C(c4cccnc4)=CCC32)C1 (stereo partly drawn) [Compound 453, 3-((10R,13S)-3-methoxy-10,13-dimethyl-2,3,4,7,8,9,10,11,12,13,14,15-dodecahydro-1H-cyclopenta[a]phenanthren-17-yl)pyridine]",< 10%
4,"CCc1ccncc1C1=CC=C2C3CCC4CC(=O)NCC[C@]4(C)C3CC[C@]12C (stereo partly drawn) [Compound 467, (5aS,7aS)-8-(4-ethylpyridin-3-yl)-5a,7a-dimethyl-3,4,5,5a,5b,6,7,7a,10b,11,12,12a-dodecahydrocyclopenta[5,6]naphtho[1,2-d]azepin-2(1H)-one]",10 to 50%
5,"CC(C)C(=O)O[C@H]1CC[C@@]2(C)C(=CCC3C4=CC=C(c5cccnc5)[C@@]4(C)CCC32)C1 (stereo partly drawn) [Compound 191, (3S,10R,13S)-10,13-dimethyl-17-(pyridin-3-yl)-2,3,4,7,8,9,10,11,12,13-decahydro-1H-cyclopenta[a]phenanthren-3-yl isobutyrate]",10 to 50%
6,"C[C@]12CCC3C(CC4OC45C[C@@H](O)CC[C@]35C)C1=CC=C2c1cccnc1 (stereo partly drawn) [Compound 439, (3S,9aS,11bR)-9a,11b-dimethyl-9-(pyridin-3-yl)-1,2,3,4,5a,6,6a,9a,10,11,11a,11b-dodecahydrocyclopenta[1,2]phenanthro[8a,9-b]oxiren-3-ol]",> 50%
7,"CNC1CC[C@@]2(C)C(CC[C@@H]3[C@@H]2CC[C@]2(C)C(c4cccnc4)=CC[C@@H]32)C1 (stereo partly drawn) [Compound 211, (10S,13S)-N,10,13-trimethyl-17-(pyridin-3-yl)-2,3,4,5,6,7,8,9,10,11,12,13,14,15-tetradecahydro-1H-cyclopenta[a]phenanthren-3-amine]",10 to 50%
8,"CC(C)(C)C(=O)O[C@H]1CC[C@@]2(C)C(=CCC3C4=CC=C(c5cccnc5)[C@@]4(C)CCC32)C1 (stereo partly drawn) [Compound 192, (3S,10R,13S)-10,13-dimethyl-17-(pyridin-3-yl)-2,3,4,7,8,9,10,11,12,13-decahydro-1H-cyclopenta[a]phenanthren-3-yl pivalate]",10 to 50%
9,"C[C@]12CC[C@@H](NC(=O)C(F)(F)F)CC1CCC1C2CC[C@]2(C)C(c3cccnc3)=CCC12 (stereo partly drawn) [Compound 217, N-((3R,10S,13S)-10,13-dimethyl-17-(pyridin-3-yl)-2,3,4,5,6,7,8,9,10,11,12,13,14,15-tetradecahydro-1H-cyclopenta[a]phenanthren-3-yl)-2,2,2-trifluoroacetamide]",10 to 50%
10,"Cc1ccncc1C1=CC=C2C3CCC4CC(=O)NCC[C@]4(C)C3CC[C@]12C (stereo partly drawn) [Compound 463, (5aS,7aS)-5a,7a-dimethyl-8-(4-methylpyridin-3-yl)-3,4,5,5a,5b,6,7,7a,10b,11,12,12a-dodecahydrocyclopenta[5,6]naphtho[1,2-d]azepin-2(1H)-one]",10 to 50%
11,"C[C@@]1(O)CC[C@@]2(C)C(CCC3C2CC[C@]2(C)C(c4cccnc4)=CCC32)C1 (stereo partly drawn) [Compound 253, (3R,10S,13S)-3,10,13-trimethyl-17-(pyridin-3-yl)-2,3,4,5,6,7,8,9,10,11,12,13,14,15-tetradecahydro-1H-cyclopenta[a]phenanthren-3-ol]",< 10%
12,"CCc1ccncc1C1=CC=C2C3CCC4C[C@@H](O)CC[C@]4(C)C3CC[C@]12C (stereo partly drawn) [Compound 465, (3S,10S,13S)-17-(4-ethylpyridin-3-yl)-10,13-dimethyl-2,3,4,5,6,7,8,9,10,11,12,13-dodecahydro-1H-cyclopenta[a]phenanthren-3-ol]",< 10%
13,"CC(C)(C)c1ccccc1C(=O)O[C@H]1CC[C@@]2(C)C(=CC[C@H]3C4=CC=C(c5cccnc5)[C@@]4(C)CC[C@@H]32)C1 [Compound 201, (3S,10R,13S)-10,13-dimethyl-17-(pyridin-3-yl)-2,3,4,7,8,9,10,11,12,13-decahydro-1H-cyclopenta[a]phenanthren-3-yl 2-(tert-butyl)benzoate]",< 10%
14,"C[C@]12CC[C@H](O)CC1CCC1C2CC[C@]2(C)C(c3cccnc3)CCC12 (stereo partly drawn) [Compound 473, (3S,10S,13S)-10,13-dimethyl-17-(pyridin-3-yl)hexadecahydro-1H-cyclopenta[a]phenanthren-3-ol]",< 10%
15,"CCNC(=O)N[C@@H]1CC[C@@]2(C)C(CC[C@@H]3[C@@H]2CC[C@]2(C)C(n4ccnc4)=CC[C@@H]32)C1 (stereo partly drawn) [Compound 247, 1-((3R,10S,13S)-17-(1H-imidazol-1-yl)-10,13-dimethyl-2,3,4,5,6,7,8,9,10,11,12,13,14,15-tetradecahydro-1H-cyclopenta[a]phenanthren-3-yl)-3-ethylurea]",> 50%
16,"C[C@@]1(O)CC[C@@]2(C)C(CCC3C4=CC=C(c5cccnc5)[C@@]4(C)CCC32)C1 (stereo partly drawn) [Compound 260, (3R,10S,13S)-3,10,13-trimethyl-17-(pyridin-3-yl)-2,3,4,5,6,7,8,9,10,11,12,13-dodecahydro-1H-cyclopenta[a]phenanthren-3-ol]",< 10%
17,"CC(=O)N(C)C1CC[C@@]2(C)C(CCC3C2CC[C@]2(C)C(c4cccnc4)=CCC32)C1 (stereo partly drawn) [Compound 213, N-((10S,13S)-10,13-dimethyl-17-(pyridin-3-yl)-2,3,4,5,6,7,8,9,10,11,12,13,14,15-tetradecahydro-1H-cyclopenta[a]phenanthren-3-yl)-N-methylacetamide]",10 to 50%

# Same assay, conditions: test compound at 1 nM, read-out: CYP17 enzymatic assay percent inhibition at 1 nM (Biological Example No. 12)
row,Compound,inhibition at 0.001 µM
1,"C[C@]12CC(F)(F)CC1CCC1C2CC[C@]2(C)C(c3cccnc3)=CCC12 (stereo partly drawn) [Compound 407, 3-((8aS,10aS)-7,7-difluoro-8a,10a-dimethyl-3,3a,3b,4,5,5a,6,7,8,8a,8b,9,10,10a-tetradecahydrodicyclopenta[a,f]naphthalen-1-yl)pyridine]",10 to 50%
2,"Cc1ccncc1C1=CC=C2C3CCC4CC(=O)CC[C@]4(C)C3CC[C@]12C (stereo partly drawn) [Compound 486, (10S,13S)-10,13-dimethyl-17-(4-methylpyridin-3-yl)-4,5,6,7,8,9,10,11,12,13-decahydro-1H-cyclopenta[a]phenanthren-3(2H)-one]",10 to 50%
